From ChEMBL document CHEMBL5465560, “Selectivity Literature for EUbOPEN Chemogenomic Library” (2024)
One block for each compound: values may come before it.

Key:
[1] = target: T1, Protein kinase C epsilon type (Homo sapiens) (UniProt Q02156); experiment: Selectivity interaction (Ambit KINOMEscan and KiNATiv profiling in Jurkat cells) EUB0000090b PRKCE; assay type: cell-based; conditions: at 1 µM
T1 sequence (whole entry): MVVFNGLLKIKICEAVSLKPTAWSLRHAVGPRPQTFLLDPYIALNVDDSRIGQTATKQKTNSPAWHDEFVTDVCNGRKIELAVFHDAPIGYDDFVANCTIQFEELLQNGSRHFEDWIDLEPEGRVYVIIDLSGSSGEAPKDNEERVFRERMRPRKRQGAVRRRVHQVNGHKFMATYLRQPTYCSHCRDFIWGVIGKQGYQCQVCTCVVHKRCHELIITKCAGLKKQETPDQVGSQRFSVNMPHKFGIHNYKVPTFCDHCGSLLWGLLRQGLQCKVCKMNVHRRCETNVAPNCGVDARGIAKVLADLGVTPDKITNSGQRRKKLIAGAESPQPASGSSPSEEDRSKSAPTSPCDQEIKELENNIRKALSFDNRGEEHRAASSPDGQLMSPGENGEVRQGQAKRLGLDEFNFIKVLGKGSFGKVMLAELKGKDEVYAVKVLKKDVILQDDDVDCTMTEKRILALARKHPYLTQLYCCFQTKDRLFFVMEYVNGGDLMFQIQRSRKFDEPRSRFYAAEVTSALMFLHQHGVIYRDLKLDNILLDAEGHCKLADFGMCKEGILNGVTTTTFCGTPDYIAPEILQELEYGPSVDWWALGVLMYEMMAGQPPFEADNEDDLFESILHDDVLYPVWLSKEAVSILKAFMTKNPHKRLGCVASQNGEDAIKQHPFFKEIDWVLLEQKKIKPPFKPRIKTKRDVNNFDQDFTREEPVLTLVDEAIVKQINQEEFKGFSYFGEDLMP

[2] = target: T2, Lymphokine-activated killer T-cell-originated protein kinase (Homo sapiens) (UniProt Q96KB5); experiment: Selectivity interaction (Kinase panel (DSF assay)) EUB0001559a PBK
T2 sequence (whole entry): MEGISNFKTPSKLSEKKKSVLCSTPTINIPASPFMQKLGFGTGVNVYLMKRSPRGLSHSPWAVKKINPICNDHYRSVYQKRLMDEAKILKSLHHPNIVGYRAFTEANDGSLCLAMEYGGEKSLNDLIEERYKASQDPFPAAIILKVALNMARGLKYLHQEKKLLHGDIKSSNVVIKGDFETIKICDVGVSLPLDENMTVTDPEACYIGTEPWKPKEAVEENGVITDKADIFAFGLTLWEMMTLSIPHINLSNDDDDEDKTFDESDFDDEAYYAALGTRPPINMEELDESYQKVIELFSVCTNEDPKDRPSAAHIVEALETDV

[3] = Selectivity interaction (KinomeScan (DiscoverX)) EUB0001079a CDPK1; conditions: at 1 µM
[4] = system: Mast/stem cell growth factor receptor Kit (Homo sapiens), P10721 [D816V]; experiment: (§1) Selectivity interaction (KinomeScan (DiscoverX)) EUB0001619a KIT; conditions: at 1 µM
[5] = target: Mast/stem cell growth factor receptor Kit (Homo sapiens, UniProt P10721); experiment: as §1; conditions: at 1 µM
[6] = system: Mast/stem cell growth factor receptor Kit (Homo sapiens), P10721 [V559D]; experiment: as §1; conditions: at 1 µM
[7] = system: Mast/stem cell growth factor receptor Kit (Homo sapiens), P10721 [A829P]; experiment: as §1; conditions: at 1 µM
[8] = system: Mast/stem cell growth factor receptor Kit (Homo sapiens), P10721 [L576P]; experiment: as §1; conditions: at 1 µM
[9] = system: Mast/stem cell growth factor receptor Kit (Homo sapiens), P10721 [V559D,T670I]; experiment: as §1; conditions: at 1 µM
[10] = system: Mast/stem cell growth factor receptor Kit (Homo sapiens), P10721 [D816H]; experiment: as §1; conditions: at 1 µM
[11] = system: Mast/stem cell growth factor receptor Kit (Homo sapiens), P10721 [V559D,V654A]; experiment: as §1; conditions: at 1 µM
[12] = target: 5'-AMP-activated protein kinase catalytic subunit alpha-2 (Homo sapiens) (UniProt P54646); experiment: Selectivity interaction (KinomeScan (DiscoverX)) EUB0001619a PRKAA2; conditions: at 1 µM
[13] = target: Phosphatidylinositol 4,5-bisphosphate 3-kinase catalytic subunit beta isoform (Homo sapiens) (UniProt P42338); experiment: Selectivity interaction (ActivX KiNativ screen (ex vivo kinase selectivity in human PBMCs)) EUB0001619a PIK3CB; assay type: cell-based; conditions: PBMC, at 1 µM
[14] = target: Calcium/calmodulin-dependent protein kinase type II subunit alpha (Homo sapiens, UniProt Q9UQM7); experiment: Selectivity interaction (KinomeScan (DiscoverX)) EUB0000045b CAMK2A
[15] = target: Mitogen-activated protein kinase kinase kinase 1 (Homo sapiens, UniProt Q13233); experiment: Selectivity interaction (KinomeScan (DiscoverX)) EUB0000045b MAP3K1
[16] = target: Calcium/calmodulin-dependent protein kinase type 1 (Homo sapiens) (UniProt Q14012); conditions: at 10 µM
[17] = target: Ephrin type-A receptor 5 (Homo sapiens) (UniProt P54756); experiment: Selectivity interaction (Kinase panel (Invitrogen)) EUB0000639a EPHA5; conditions: at 200 nM
[18] = target: T3, Protein kinase C zeta type (Homo sapiens) (UniProt Q05513); experiment: Selectivity interaction (ProQinase) EUB0000171b PRKCZ
T3 sequence (whole entry): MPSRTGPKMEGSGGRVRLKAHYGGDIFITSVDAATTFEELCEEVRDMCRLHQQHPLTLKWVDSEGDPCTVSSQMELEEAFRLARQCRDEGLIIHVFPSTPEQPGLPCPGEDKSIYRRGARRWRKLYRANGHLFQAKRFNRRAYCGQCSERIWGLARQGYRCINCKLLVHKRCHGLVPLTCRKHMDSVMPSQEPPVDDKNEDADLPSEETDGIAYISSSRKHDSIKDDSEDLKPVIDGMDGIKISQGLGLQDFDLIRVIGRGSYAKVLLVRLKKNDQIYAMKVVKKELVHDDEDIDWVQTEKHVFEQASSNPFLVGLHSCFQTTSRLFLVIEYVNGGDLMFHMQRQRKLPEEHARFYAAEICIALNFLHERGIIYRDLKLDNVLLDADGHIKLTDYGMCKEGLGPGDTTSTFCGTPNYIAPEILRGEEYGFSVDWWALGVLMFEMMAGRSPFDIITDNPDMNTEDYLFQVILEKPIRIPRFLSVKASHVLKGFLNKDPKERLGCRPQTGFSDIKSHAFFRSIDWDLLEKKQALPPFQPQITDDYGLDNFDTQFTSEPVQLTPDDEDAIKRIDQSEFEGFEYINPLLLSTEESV

Chain of Calcium/calmodulin-dependent protein kinase type II subunit alpha (Q9UQM7 whole entry): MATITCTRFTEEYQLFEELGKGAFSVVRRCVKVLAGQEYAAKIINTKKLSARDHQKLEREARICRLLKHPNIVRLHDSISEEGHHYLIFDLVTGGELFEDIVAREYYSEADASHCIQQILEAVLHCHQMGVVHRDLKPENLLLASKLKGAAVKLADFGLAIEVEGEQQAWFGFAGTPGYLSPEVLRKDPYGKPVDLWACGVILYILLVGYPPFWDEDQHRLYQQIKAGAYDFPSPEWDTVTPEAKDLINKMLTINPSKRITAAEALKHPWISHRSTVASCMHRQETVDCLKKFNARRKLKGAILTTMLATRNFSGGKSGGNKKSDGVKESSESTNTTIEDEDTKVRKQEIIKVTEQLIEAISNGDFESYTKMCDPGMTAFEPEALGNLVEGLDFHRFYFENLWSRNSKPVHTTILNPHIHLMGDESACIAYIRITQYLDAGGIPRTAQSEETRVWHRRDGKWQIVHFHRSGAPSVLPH
Chain of Mitogen-activated protein kinase kinase kinase 1 (Q13233 whole entry): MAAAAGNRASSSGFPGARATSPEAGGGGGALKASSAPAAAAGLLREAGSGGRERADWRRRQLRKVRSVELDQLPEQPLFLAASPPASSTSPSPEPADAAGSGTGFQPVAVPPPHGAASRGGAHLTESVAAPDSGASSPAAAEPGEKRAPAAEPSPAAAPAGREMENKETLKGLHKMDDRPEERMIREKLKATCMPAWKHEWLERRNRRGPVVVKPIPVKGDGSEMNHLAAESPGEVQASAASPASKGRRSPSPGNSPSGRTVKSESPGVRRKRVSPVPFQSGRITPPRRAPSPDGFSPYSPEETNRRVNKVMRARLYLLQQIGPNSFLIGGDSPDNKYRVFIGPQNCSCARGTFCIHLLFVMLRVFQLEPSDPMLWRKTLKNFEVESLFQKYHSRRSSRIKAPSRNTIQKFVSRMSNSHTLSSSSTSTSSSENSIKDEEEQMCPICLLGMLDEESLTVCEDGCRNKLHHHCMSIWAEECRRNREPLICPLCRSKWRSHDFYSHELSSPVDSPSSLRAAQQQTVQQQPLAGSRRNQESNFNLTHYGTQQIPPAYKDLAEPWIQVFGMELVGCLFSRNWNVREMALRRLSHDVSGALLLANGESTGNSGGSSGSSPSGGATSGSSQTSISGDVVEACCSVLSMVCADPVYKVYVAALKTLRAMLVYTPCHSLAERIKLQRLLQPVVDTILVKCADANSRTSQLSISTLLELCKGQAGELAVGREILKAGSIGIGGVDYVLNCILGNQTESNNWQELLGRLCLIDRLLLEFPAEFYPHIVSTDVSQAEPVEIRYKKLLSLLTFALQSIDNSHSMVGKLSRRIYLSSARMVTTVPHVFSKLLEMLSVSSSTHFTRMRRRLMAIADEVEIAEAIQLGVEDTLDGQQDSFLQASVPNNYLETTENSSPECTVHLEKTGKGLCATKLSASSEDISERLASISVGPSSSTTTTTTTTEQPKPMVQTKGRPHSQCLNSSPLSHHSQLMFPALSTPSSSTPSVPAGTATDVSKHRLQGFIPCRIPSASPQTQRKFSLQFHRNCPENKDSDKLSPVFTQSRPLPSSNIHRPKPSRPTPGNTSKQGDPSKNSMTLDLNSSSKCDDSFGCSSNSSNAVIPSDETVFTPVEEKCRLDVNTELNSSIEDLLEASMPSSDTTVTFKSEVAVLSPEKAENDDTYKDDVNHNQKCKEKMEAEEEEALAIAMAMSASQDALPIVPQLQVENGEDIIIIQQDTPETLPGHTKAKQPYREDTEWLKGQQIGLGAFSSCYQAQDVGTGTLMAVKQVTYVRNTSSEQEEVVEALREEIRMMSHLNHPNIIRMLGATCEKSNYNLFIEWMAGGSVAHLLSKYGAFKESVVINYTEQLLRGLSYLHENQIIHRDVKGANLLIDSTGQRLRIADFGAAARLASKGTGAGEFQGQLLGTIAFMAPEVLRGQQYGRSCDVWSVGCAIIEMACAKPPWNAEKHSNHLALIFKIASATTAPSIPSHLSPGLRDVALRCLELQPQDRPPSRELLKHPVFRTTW
Chain of Mast/stem cell growth factor receptor Kit (Homo sapiens), P10721 [L576P] (P10721 whole entry L576P): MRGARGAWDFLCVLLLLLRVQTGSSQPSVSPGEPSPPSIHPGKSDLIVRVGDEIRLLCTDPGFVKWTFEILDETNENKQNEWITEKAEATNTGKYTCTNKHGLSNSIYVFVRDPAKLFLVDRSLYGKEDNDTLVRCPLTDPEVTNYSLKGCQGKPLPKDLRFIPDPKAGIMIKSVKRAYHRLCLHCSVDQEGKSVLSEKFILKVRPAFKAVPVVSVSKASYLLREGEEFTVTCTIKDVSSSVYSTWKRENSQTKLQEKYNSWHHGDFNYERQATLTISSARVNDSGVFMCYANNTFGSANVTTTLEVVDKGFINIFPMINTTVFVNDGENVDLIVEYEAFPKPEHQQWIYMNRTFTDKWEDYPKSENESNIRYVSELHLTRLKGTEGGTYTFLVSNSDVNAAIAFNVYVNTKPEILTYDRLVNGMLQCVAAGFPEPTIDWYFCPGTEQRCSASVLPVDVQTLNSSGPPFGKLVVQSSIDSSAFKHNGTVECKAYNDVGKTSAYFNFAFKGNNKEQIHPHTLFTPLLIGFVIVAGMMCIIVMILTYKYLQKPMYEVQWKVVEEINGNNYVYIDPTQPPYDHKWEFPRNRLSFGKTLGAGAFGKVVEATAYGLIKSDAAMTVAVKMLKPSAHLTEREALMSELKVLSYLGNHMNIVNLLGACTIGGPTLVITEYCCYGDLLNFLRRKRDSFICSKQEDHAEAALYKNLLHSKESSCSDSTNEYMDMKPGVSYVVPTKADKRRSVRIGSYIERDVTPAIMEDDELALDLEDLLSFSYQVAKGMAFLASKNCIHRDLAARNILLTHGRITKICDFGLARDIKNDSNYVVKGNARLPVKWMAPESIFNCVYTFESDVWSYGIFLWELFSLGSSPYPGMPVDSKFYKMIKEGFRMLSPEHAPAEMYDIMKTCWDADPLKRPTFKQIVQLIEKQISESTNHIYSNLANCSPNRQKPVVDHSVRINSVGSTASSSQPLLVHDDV
Chain of Mast/stem cell growth factor receptor Kit (Homo sapiens), P10721 [V559D] (P10721 whole entry V559D): as the sequence (P10721 whole entry L576P) above, with V559D, P576L counted along it
Chain of Ephrin type-A receptor 5 (Homo sapiens) (P54756 whole entry): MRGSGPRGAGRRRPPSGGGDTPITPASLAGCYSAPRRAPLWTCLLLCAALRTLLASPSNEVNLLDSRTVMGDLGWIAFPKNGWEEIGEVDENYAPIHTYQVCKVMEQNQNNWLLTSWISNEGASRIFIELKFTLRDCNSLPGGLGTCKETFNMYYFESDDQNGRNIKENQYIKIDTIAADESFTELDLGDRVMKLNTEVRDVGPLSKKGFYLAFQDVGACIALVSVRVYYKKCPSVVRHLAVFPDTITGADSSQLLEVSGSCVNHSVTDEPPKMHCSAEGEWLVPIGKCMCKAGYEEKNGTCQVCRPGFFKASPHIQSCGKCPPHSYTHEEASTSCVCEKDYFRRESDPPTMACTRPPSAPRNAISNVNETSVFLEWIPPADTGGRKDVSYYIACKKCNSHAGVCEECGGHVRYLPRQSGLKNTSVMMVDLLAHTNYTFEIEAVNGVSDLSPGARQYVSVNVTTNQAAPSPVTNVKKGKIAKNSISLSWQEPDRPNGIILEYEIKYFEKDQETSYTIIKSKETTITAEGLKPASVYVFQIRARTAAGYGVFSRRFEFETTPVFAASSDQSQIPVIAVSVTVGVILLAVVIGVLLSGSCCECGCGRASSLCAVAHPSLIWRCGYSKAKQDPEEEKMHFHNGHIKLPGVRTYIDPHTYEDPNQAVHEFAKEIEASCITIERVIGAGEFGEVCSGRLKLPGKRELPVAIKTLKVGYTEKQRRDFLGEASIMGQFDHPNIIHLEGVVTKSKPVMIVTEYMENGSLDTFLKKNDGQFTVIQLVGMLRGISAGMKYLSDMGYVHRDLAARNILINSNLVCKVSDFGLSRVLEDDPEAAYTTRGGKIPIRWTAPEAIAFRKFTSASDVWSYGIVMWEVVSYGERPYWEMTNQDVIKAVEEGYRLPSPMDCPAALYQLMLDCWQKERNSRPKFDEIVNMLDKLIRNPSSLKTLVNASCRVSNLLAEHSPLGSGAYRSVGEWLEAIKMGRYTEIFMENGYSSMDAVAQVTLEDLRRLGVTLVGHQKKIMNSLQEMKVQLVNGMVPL
Chain of Phosphatidylinositol 4,5-bisphosphate 3-kinase catalytic subunit beta isoform (Homo sapiens) (P42338 whole entry, looked up, canonical isoform): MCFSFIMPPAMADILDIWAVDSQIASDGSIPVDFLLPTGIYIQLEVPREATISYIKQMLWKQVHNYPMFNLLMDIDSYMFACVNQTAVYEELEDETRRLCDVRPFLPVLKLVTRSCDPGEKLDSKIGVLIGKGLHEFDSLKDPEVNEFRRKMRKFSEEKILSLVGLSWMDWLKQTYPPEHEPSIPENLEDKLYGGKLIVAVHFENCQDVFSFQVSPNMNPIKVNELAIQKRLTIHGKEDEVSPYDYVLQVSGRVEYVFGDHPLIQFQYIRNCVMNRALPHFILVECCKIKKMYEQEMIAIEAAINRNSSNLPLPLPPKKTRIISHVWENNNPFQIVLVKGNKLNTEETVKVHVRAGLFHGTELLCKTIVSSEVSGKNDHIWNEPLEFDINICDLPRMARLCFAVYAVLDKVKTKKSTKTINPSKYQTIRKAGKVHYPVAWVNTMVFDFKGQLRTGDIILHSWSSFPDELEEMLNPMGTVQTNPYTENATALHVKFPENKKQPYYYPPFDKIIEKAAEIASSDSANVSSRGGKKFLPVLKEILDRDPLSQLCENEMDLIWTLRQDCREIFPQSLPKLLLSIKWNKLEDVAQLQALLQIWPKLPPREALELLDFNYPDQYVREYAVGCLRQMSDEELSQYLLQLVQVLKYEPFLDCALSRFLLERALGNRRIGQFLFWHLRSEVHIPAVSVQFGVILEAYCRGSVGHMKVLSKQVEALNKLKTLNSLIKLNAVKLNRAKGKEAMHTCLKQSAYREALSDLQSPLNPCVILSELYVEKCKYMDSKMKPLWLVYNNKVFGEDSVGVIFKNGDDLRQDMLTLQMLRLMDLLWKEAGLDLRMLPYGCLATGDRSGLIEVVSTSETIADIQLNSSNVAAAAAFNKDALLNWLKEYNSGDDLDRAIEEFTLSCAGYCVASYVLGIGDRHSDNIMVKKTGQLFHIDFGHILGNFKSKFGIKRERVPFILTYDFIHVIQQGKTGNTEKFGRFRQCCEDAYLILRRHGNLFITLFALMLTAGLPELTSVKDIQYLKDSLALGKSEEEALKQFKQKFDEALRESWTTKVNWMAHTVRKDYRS

SMILES: CN(C)C/C=C/C(=O)Nc1ccc(C(=O)N2CCCC(Nc3ncc(Cl)c(-c4c[nH]c5ccccc45)n3)C2)cc1 (stereo unspecified)
% of control [1]: 99%

SMILES: CN(C(=O)c1cnn2cccnc12)c1cc2c(cc1N1CCOCC1)C(=O)N(C[C@@H](F)C(C)(C)O)C2
dTM [2]: 0.7 K

SMILES: Nc1cnc(N2CCc3cc(S(=O)(=O)Nc4c(F)cc(Cl)cc4F)cc(N4CCCC4=O)c32)nc1 [TP-020n]
% of control [3]: 97%

SMILES: N#Cc1cccc(-c2c[nH]c3ncnc(N4CCOCC4)c23)c1
% of control [4]: 99%
% of control [5]: 100%
% of control [6]: 100%
% of control [7]: 50%
% of control [8]: 89%
% of control [9]: 100%
% of control [10]: 92%
% of control [11]: 72%
% of control [12]: 22%
% of inhibition [13]: -3%

SMILES: C=CC(=O)Nc1cc(-n2c(=O)ccc3cnc4ccc(-c5ccc(NS(C)(=O)=O)cc5)cc4c32)ccc1C
% of control ([14]; at 1 µM): 98%
% of control ([14]; at 10 µM): 69%
% of control ([15]; at 1 µM): 100%
% of control ([15]; at 10 µM): 100%

SMILES: Cc1cc([C@@H](C)Nc2ccccc2C(=O)O)c2nc(N3CCOCC3)cc(=O)n2c1 [AZD-6482]
% of control [16]: 100%

% of inhibition [17]: -0.246%
SMILES: CC[C@@H]1[C@H](F)C(=O)N[C@@H]1COc1nccc2cc(C(N)=O)c(OC)cc12 [ZIMLOVISERTIB]

% of control ([18]; at 1 µM): 87%
% of control ([18]; at 5 µM): 86%
SMILES: C=CC(=O)Nc1cccc(C(=O)Nc2ccc(Nc3cc(-c4[nH]c(SC)nc4C)ccn3)cc2)c1
